Test system: Mouse 2C CD8+ T cell-vesicle binding, flow cytometry
Test: modulators of CD8 T cell-vesicle binding, dose response, powder samples, mouse 2C CD8+ cells (AID 504565)
[1] = CD8+ 90th percentile fluorescence
[2] = double positive events percentage

SMILES | EC50 [1] [µM] | EC50 [2] [µM]
COCc1c(C(=O)Nc2cccc(S(=O)(=O)N3CCCCC3)c2)oc2ccccc12 | 6.43 | 7.96
CCOC(=O)C1CCCN(S(=O)(=O)c2ccc(F)c(C(=O)Nc3ccc(F)c(F)c3)c2)C1 (stereo unspecified) | 37.7 | 34.4
CCOCC(=O)Nc1ccc(S(=O)(=O)N2CCC(c3nc4ccccc4[nH]3)CC2)cc1 | 0.6 | 0.63
Cc1ccccc1C(=O)N1CCC(C(=O)Nc2ccc(C)c(S(=O)(=O)N3CCCCC3)c2)CC1 | 17 | 16.3
CCN(CC)S(=O)(=O)c1ccc(Cl)c(NC(=O)COC(=O)C2CCCCC2)c1 | 38.8 | 37.6
CCOc1ccc(-c2nc(N)ncc2-c2ccccc2)c(O)c1 | 0.239 | –
CN(CC(=O)Nc1cc(S(=O)(=O)N2CCCC2)ccc1Cl)Cc1ccc2c(c1)OCO2 | 8 | 9.84
COc1ccc(S(=O)(=O)N2CCCC2C(=O)Nc2ccc(C(C)=O)cc2)cc1 (stereo unspecified) | 20.7 | 20.2
O=C(COC(=O)C12CC3CC(CC(Br)(C3)C1)C2)Nc1cccc(S(=O)(=O)N2CCOCC2)c1 | 8.26 | 3.22

More lines, in order of falling EC50 [1], values ahead:

EC50 [1] [µM] | EC50 [2] [µM] | SMILES
34.9 | 39.8 | O=C(c1ccc(N2C(=O)C3CC=C(Cl)CC3C2=O)cc1)N1CCCCC1 (stereo unspecified)
34.8 | 33.7 | O=C(O)C1CCC(Cn2c(SCc3cc(=O)n4cc(Cl)ccc4n3)nc3ccsc3c2=O)CC1 (stereo unspecified)
22.6 | – | Cc1cc(Cl)c(OCCCSc2nc(C)cc(=O)[nH]2)c(Br)c1
21.4 | 17.1 | O=C(NCC1CCCCC1)c1ccc(Cl)c(S(=O)(=O)N2CCOCC2)c1
14 | 10.4 | CCOC(=O)c1ccc(S(=O)(=O)N2CCN(C3CCCC3)CC2)cc1

From PubChem BioAssay AID504565 (NMMLSC, 2011)
